{"source": "patent US20250034264A1", "about": "“REGULATING T CELL IMMUNE RESPONSE THROUGH IGF-I RECEPTOR (IGF-1R)” (The Regents of the University of Michigan, priority 2021, published 2025)", "assay_type_in_all_cases": "cell-based, human", "key": {"fibrocytes [1]": {"tested_on": "fibrocytes", "experiment": "IL-10, icIL-1RA, sIL-1RA expression (PCR, ELISA)", "procedure": "FIGS. 11A-11F are graphs showing teprotumumab attenuates bTSH induced IL-10 while enhancing icIL-1RA and sIL-1RA expression in fibrocytes and GD-OF. Fibrocyte cultures were treated with teprotumumab (50 μg/ml), rhSlit2 (50 ng/ml) or human Isotype IgG for 7-9 d, with bTSH (5 mIU/mL) for final 6 h. RNA was extracted and reverse transcribed. Isolated cDNA was subjected to quantitative real-time PCR for IL-10 (FIGS. 11A and 11B), icIL-1RA (FIGS. 11C and 11D). Media and cellular proteins were collected and subjected to specific ELISAs for icIL-1RA and sIL-1RA (FIGS. 11E, 11F, 11G, and 11H). PCR values were normalized to their respective GAPDH levels. icIL-1RA and sIL-1RA protein levels were normalized to cellular protein levels. Data are expressed as the mean±SD of three independent determinations. Experiments were repeated three times. **, p<0.01; ***. P<0.001.\nIL-12, IL-23, IL-10, HA and BAFF ELISAs. Confluent cultures were treated with nothing or teprotumumab (50 μg/mL) for 5 d, without or with bTSH (5 mU/mL) for the intervals indicated or 72 h. Media and rinsed cell layers were homogenized in 0.1M NaCl and assayed for HA content using an ELISA kit (K-1200) from Echelon Biosciences Inc. (Salt Lake City, UT) according to manufacturer's instructions. A BAFF specific ELISA, purchased from R & D systems, was used in accordance with the manufacturer's instructions.\n(§1) Real-time PCR Confluent fibrocyte and GD-OF cultures were incubated with bTSH (5 mIU/mL), teprotumumab (50 μg/mL) or linsitinib (1 μM) for the time intervals indicated, washed with PBS and RNA was extracted with the Aurum Total RNA Mini Kit (cat. #732-6820, Bio-Rad, Hercules, CA). Cellular RNA (2 μg) was reverse transcribed using QuantiTect Reverse Transcription kit (cat. #205314, Qiagen (Germantown, MD) and real-time PCR was performed using an Applied Biosystems instrument with QuantiTect SYBR Green PCR kit (cat. no. 204143; Qiagen, Frederick, MD). Primer sequences were as follows."}, "fibrocytes [2]": {"tested_on": "fibrocytes", "experiment": "AIRE and thyroid autoantigen (Tg, TPO, NIS) mRNA expression", "conditions": "50 μg/mL 7-9 days; bTSH 5 mIU/mL 6 h; vs isotype control mAb", "procedure": "FIGS. 9A-9D are graphs showing the effect of teprotumumab on bovine thyrotropin or thyroid-stimulating hormone (bTSH) induced thyroid specific genes thyroglobulin (Tg), sodium iodide symporter (NIS), thyroperoxidase (TPO), and autoimmune regulator protein (AIRE) in fibrocytes. Confluent fibrocyte cultures were treated with or without teprotumumab (50 μg/ml) and human Isotype IgG for 7-9 d, followed by bTSH (5 mIU/mL) for 6 h. Monolayers were washed with PBS and RNA was extracted and reverse transcribed. Harvested cDNA was subjected to quantitative real-time PCR for AIRE (FIG. 9A), Tg (FIG. 9B), TPO (FIG. 9C), and NIS (FIG. 9D) mRNA levels. Values were normalized to their respective GAPDH levels and are expressed as the mean f SD of three independent determinations. Experiments were repeated three times. *, P<0.05; **, p<0.01.\nas §1"}, "GD-OF": {"tested_on": "GD-OF", "experiment": "HAS1 and HAS2 mRNA, real-time PCR", "conditions": "teprotumumab 50 μg/ml or linsitinib 1 μM, 7-9 d", "procedure": "(§2) FIGS. 13A-13B are graphs showing the effect of teprotumumab on bTSH induced hyaluronan (HA) production in GD-OF (FIG. 13A) and fibrocytes (FIG. 13B). GD-OF were treated with or without teprotumumab (50 μg/ml) or human Isotype IgG (5 μg/ml) for 7-9 d and stimulated with bTSH (5 mIU/mL) for graded intervals indicated along the abscissa for 0 to 96h. Media were collected and subjected to HA ELISA. Values were normalized to respective cell layer protein levels and expressed as the mean±SD of three independent determinations. Experiments were repeated three times. FIGS. 13C-13F are graphs showing the divergent pattern of hyaluronan synthase (HAS) isoenzyme induction by bTSH in fibrocytes versus GD-OF and effects of teprotumumab (FIGS. 13C and 13D) and linsitinib (FIGS. 13E and 13F). Confluent monolayers of GD-OF and fibrocytes remained untreated or received teprotumumab (50 μg/ml) or linsitinib (1 μM) and human Isotype IgG for 7-9 d. Some cultures were treated with bTSH (5 mIU/mL) for 6h. Cellular RNA was harvested mRNA was reverse transcribed, and cDNA subjected to quantitative real-time PCR for HAS1 and HAS2. Values were normalized to their respective GAPDH levels and are expressed as the mean±SD of three independent determinations. Experiments were repeated three times. *, P<0.05; **, p<0.01; ***. P<0.001.\nas §1"}, "fibrocytes [3]": {"tested_on": "fibrocytes", "experiment": "HAS1 and HAS2 mRNA, real-time PCR", "conditions": "teprotumumab 50 μg/ml or linsitinib 1 μM, 7-9 d", "procedure": "as §2, §1"}, "[4]": {"conditions": "teprotumumab 50 μg/ml or rhSlit2 50 ng/ml, 7-9 d"}}}
{"substance": "teprotumumab", "values": [{"measurement": "effects on icIL-1RA protein levels", "setting": "fibrocytes [1]; ELISA, fibrocytes", "result": "minimal"}, {"measurement": "IL-10 mRNA, basal and bTSH-provoked expression", "setting": "fibrocytes [1]; [4]", "result": "downregulated"}, {"measurement": "basal and bTSH-dependent icIL-1RA and sIL-1RA mRNA levels", "setting": "fibrocytes [1]; [4]", "result": "upregulated"}, {"measurement": "AIRE basal expression and induction by bTSH", "setting": "fibrocytes [2]", "result": "inhibited"}, {"measurement": "NIS basal expression and induction by bTSH", "setting": "fibrocytes [2]", "result": "inhibited"}, {"measurement": "TPO basal expression and induction by bTSH", "setting": "fibrocytes [2]", "result": "inhibited"}, {"measurement": "Tg basal expression and induction by bTSH", "setting": "fibrocytes [2]", "result": "inhibited"}, {"measurement": "HAS2 expression, single agent or in combination with bTSH", "setting": "GD-OF", "result": "induced"}, {"measurement": "basal and bTSH-provoked expression of HAS1", "setting": "GD-OF", "result": "inhibited"}, {"measurement": "HAS2 expression, single agent or in combination with bTSH", "setting": "fibrocytes [3]", "result": "induced"}, {"measurement": "basal and bTSH-provoked expression of HAS1", "setting": "fibrocytes [3]", "result": "inhibited"}]}
